Experimental data from patent publication US11357752B2, “Carolacton and derivatives thereof for use in the treatment of cell proliferation disorders” (Helmholtz-Zentrum für Infektionsforschung GmbH, priority 2017, dated 2022).

Test system: S. mutans ΔfoID biofilms
Assay: S. mutans biofilm viability assay, foID deletion mutant
Assay type: cell-based, Streptococcus mutans
Details: 2.5 μg/ml carolacton
Description: According to Reck et al., 2011, S. mutans biofilms were grown in THBY+0.5% (w/v) sucrose in the presence of 2.5 μg/ml carolacton (cf. SI Methods). Cell viability was determined by staining of 20 h-old S. mutans biofilms with the LIVE/DEAD Viability Kit (Invitrogen) and by measuring fluorescence with a Victor^3 multilabel counter (Perkin-Elmer). Subsequently, the green/red fluorescence ratio was calculated and the relative inhibition of the treated biofilms determined in comparison to the untreated control.
For determination of Carolacton-induced cell death of S. mutans biofilms, o/n cultures of S. mutans were diluted to an OD600 of 0.01 in THBY+0.5% (w/v) sucrose. 10 μl of a Carolacton solution (2.5 μg/ml and 0.25 μg/ml in methanol) was pipetted into the wells of black a 96-well polystyrene Nunc MicroWell plates with transparent bottoms (ThermoFisher); control wells contained 10 μl of methanol. […]
The viability of S. mutans biofilm cells was assayed by staining with the commercially available Live/Dead staining kit (Invitrogen). […] Green and red fluorescence values of stained cells were measured using a Victor^3 fluorescence plate reader (Perkin-Elmer). The green/red ratio of treated and untreated cells was calculated and the relative cell death within Carolacton-treated biofilms determined relative to the untreated controls (Reck et al., 2011).

CO[C@H](CC(=O)O)[C@@H](C)C(=O)[C@H](C)/C=C(\C)[C@H]1OC(=O)[C@H](O)[C@H](O)/C=C/[C@H](C)CCC[C@@H]1C [Carolacton, carolacton]
sensitivity of biofilms to carolacton treatment: fully insensitive
